Where two headings read alike, the source gives them in different places.
Experiments:
[1] = test system: MMV007839-selected culture A (PfFNT Gly107Ser); assay: Parasite proliferation assay, MMV007839-selected culture A; format: cell-based, Plasmodium falciparum; details: MMV007839-selected culture A; mean ± SEM; read-out: IC50 value, growth inhibition
Experimental: (§1) Parasite proliferation was measured in 96-well plates using a fluorescent DNA-intercalating dye. The assays were initiated with erythrocytes infected with predominantly ring-stage parasites, and the starting parasitaemia was 0.5–1% and the haematocrit was 1%.
For MMV007839-selected culture A, the drug concentration was increased by 5 nM increments on Day 18, Day 21, and every two days thereafter. […] The cultures were provided with fresh medium and blood and diluted to reduce the parasitaemia as needed.

[2] = test system: Dd2 parent parasites; assay: Parasite proliferation assay, Dd2 parent; format: cell-based, Plasmodium falciparum; details: Dd2 parent; mean ± SEM; read-out: IC50 value, growth inhibition
Experimental: Parasite proliferation was measured in 96-well plates using a fluorescent DNA-intercalating dye [45]. The assays were initiated with erythrocytes infected with predominantly ring-stage parasites, and the starting parasitaemia was 0.5–1% and the haematocrit was 1%.

[3] = test system: Dd2 parental parasites; assay: L-[14C]lactate uptake by isolated Dd2 parental parasites; details: read-out: IC50, inhibition of L-[14C]lactate uptake; Dd2 (parental) parasites; pH 6.1, 4°C, 20 s; mean ± SEM
[4] = test system: 3D7 parasites; assay: Parasite proliferation assay, 3D7; format: cell-based, Plasmodium falciparum; details: 3D7 (our laboratory); mean ± SEM; read-out: IC50 value, growth inhibition
Experimental: as §1

[5] = test system: 3D7 parasites; details: cited from earlier work
[6] = test system: 3D7 parasites; assay: Parasite viability after timed exposure and washout (parasitaemia on Day 3); details: 6 μM; for Effect on parasite viability: parasitaemia three days later
[7] = test system: 3D7 P. falciparum trophozoites; assay: Cytosolic pH (pHcyt) measurement in BCECF-loaded saponin-isolated trophozoites
[8] = test system: PfCRT (from the chloroquine-resistant Dd2 strain); assay: [3H]chloroquine uptake by Xenopus oocytes expressing PfCRT; format: cell-based, Plasmodium falciparum; details: 1 μM and 4 μM; pH 5.5
Excerpt: (PfCRT; from the chloroquine-resistant Dd2 strain) and on [^3H]hypoxanthine transport by oocytes expressing the P. falciparum equilibrative nucleoside/nucleobase transporter PfENT1 [27, 28].
The oocyte expression vectors containing PfFNT, PfENT1 and PfCRT were made previously. The Gly107Ser mutant form of PfFNT was generated through site-directed mutagenesis of the oocyte expression vector containing wild-type (3D7) PfFNT using primers 9 and 10 (S2 Table). Oocytes were harvested from adult female Xenopus laevis frogs and prepared as described previously. cRNA was made using the mMessage mMachine T7 transcription kit and the MEGAclear kit (Ambion) and microinjected into oocytes as outlined elsewhere. […] The uptake of radiolabelled substrates was measured 2–5 days post-injection at 27.5°C in ND96 buffer (containing 96 mM NaCl, 2 mM KCl, 1 mM MgCl2, 1.8 mM CaCl2, 10 mM MES and 10 mM Tris-base; pH-adjusted to the value specified in the relevant Figure legends). […] The oocytes were then transferred to separate wells of a 96-well plate, lysed with 10% SDS, and the radioactivity measured as described previously.
The data are averaged from four to five independent experiments (performed using oocytes from different frogs) and are shown + SEM. In B, the uptake of [^3H]hypoxanthine (0.36 μM) was measured over 30 min at pH 6.0. […]

[9] = test system: isolated 3D7 P. falciparum trophozoites; assay: L-[14C]lactate uptake by isolated 3D7 trophozoites; details: pH 6.1, 4°C, 20 s

## COc1ccc2c(c1)OC(O)(C(F)(F)C(F)(F)F)CC2=O (centres unmarked) [MMV007839]
[1]
  IC50: 35800 ± 2700 nM
[2]
  IC50: 140 ± 20 nM
[3]
  IC50: 158 ± 42 nM
[4]
  IC50: 260 ± 30 nM
[5]; ref [1] Van Voorhis et al. 2016, read-out: IC50 for killing of 3D7 parasites
  IC50: 280 nM
[5]; ref http://www.mmv.org/research-development/malaria-box-supporting-information, read-out: IC50 against 3D7 parasites, other groups
  IC50: 283 to 442 nM
[6]; 1 h exposure
  Effect on parasite viability: did not significantly affect
[6]; 3 h exposure
  Effect on parasite viability: did not significantly affect
[6]; 6 h exposure, mean ± SEM, n = 3
  Parasitaemia three days after exposure, of control levels: 49 ± 7%
[7]; 2.5 μM pre-treatment, 10 mM L-lactate, 4°C
  Lactate-induced abrupt acidification of parasite cytosol after pre-treatment: no such abrupt acidification
[7]; 2.5 μM, 4°C, 10 mM L-lactate, mean ± SEM, n = 3
  Rate of cytosolic acidification after addition of lactate: 0.011 ± 0.004 pH unit/min
[7]; 2.5 μM, 4°C, mean ± SEM, n = 3
  Rate of cytosolic acidification before addition of lactate: 0.011 ± 0.003 pH unit/min
[7]; 2.5 μM, glucose (22 mM) restored to glucose-deprived parasites, gradual alkalinisation after initial acidification of ~2 min
  Cytosolic pH restored after restoration of glucose: approximately 7.1
[7]; glucose-containing medium, 37°C (Fig 2B,C: 1 μM)
  Effect on cytosolic pH in glucose-containing medium: cytosolic acidification
[8]
  Effect on transport of [3H]chloroquine via PfCRT: not inhibiting
[9]; 0.5 μM
  Inhibition of L-[14C]lactate influx: inhibited L-[^14C]lactate influx to a similar degree
[9]; 2 μM
  Inhibition of L-[14C]lactate uptake: complete inhibition

— article PMC5298231, “The Malaria Parasite's Lactate Transporter PfFNT Is the Target of Antiplasmodial Compounds Identified in Whole Cell Phenotypic Screens” (PLoS Pathogens, 2017)
